Measured values as given in patent publication US20080009418A1, “Selective Inhibitors” (Alchemia LTD., priority 2004, published 2008).

Assays:
Human δ-opioid (DOP) = molecular target: T1, Human δ-opioid (DOP) (Homo sapiens, UniProt P41143); test: Radioligand binding, human δ-opioid (DOP) membranes, FlashPlate, [3H]-Bremazocine; conditions: compound at 10 μM, [3H]-Bremazocine; for A1: inhibition of radioligand binding: FlashPlate
T1 construct: purchased Perkin Elmer Biosignal
Method in brief: (§1)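 Cloned human receptor membranes were coated onto FlashPlate wells and incubated with radioligand and compound (added from a 0.5 mM DMSO daughter plate) for 1 hour at room temperature in the dark. Scintillation counting gave percent inhibition, with DMSO defining total and reference ligand defining non-specific binding.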

Human κ-Opioid (KOP) = molecular target: T2, Human κ-Opioid (KOP) (Homo sapiens, UniProt P41145); test: Radioligand binding, human κ-opioid (KOP) membranes, filtration, [3H]-Diprenorphine; conditions: compound at 10 μM, [3H]-Diprenorphine; for A2: inhibition of radioligand binding: filtration
T2 construct: purchased Perkin Elmer Biosignal
T2 sequence (P41145 whole entry): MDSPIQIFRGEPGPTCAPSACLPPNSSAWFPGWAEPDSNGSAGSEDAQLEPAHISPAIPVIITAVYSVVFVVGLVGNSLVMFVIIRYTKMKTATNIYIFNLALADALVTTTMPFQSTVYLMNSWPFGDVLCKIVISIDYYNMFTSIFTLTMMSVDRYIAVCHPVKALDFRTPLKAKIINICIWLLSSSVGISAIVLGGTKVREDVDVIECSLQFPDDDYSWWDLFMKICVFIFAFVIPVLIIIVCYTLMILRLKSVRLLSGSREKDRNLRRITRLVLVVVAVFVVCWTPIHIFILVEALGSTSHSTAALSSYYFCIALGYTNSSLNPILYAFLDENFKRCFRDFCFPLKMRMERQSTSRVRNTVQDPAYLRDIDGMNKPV
Method in brief: (§2)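 Filtration binding on cloned human receptor membranes (1 Unit/well), [125I]-Substance P for NK1 and [3H]-Diprenorphine for KOP, 1 h at room temperature. Filters PEI-presoaked, washed with cold 50 mM Tris-HCl pH 7.4, counted by scintillation; percent inhibition calculated, reference ligand defining non-specific binding.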

Human Melanocortin (MC3) = molecular target: T3, Human Melanocortin (MC3) (Homo sapiens, UniProt P41968); test: Radioligand binding, human melanocortin MC3 membranes, FlashPlate, [125I]-NDP-αMSH; conditions: compound at 10 μM, [125I]-NDP-αMSH; for A3: inhibition of radioligand binding: FlashPlate
T3 construct: purchased Perkin Elmer Biosignal
T3 sequence (P41968 whole entry): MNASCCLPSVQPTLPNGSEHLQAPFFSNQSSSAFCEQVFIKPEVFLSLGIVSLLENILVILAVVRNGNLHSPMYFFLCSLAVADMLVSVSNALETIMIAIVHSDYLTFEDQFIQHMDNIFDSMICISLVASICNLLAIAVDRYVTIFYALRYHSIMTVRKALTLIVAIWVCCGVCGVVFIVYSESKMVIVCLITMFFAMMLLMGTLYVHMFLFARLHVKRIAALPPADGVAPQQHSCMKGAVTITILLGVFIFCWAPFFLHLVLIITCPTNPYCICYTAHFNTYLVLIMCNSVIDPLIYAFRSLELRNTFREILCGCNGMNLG
Method in brief: as §1

Human Melanocortin (MC4) = molecular target: T4, Human Melanocortin (MC4) (Homo sapiens, UniProt P32245); test: Radioligand binding, human melanocortin MC4 membranes, FlashPlate, [125I]-NDP-αMSH; conditions: compound at 10 μM, [125I]-NDP-αMSH; for A4: inhibition of radioligand binding: FlashPlate
T4 construct: purchased Perkin Elmer Biosignal
T4 sequence (P32245 whole entry): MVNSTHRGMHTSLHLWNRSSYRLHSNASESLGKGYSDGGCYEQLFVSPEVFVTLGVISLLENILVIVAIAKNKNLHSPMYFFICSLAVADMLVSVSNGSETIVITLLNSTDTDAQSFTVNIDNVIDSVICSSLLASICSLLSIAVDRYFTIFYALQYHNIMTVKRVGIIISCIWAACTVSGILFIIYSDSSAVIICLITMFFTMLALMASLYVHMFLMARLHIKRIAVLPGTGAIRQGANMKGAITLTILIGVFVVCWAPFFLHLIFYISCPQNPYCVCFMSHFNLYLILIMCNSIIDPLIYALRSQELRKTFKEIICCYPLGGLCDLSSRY
Method in brief: as §1

Human melanocortin (MC5) = molecular target: T5, Human melanocortin (MC5) (Homo sapiens, UniProt P33032); test: Radioligand binding, human melanocortin MC5 membranes, FlashPlate, [125I]-NDP-αMSH; conditions: compound at 10 μM, [125I]-NDP-αMSH; for A5: inhibition of radioligand binding: FlashPlate
T5 construct: purchased Perkin Elmer Biosignal
T5 sequence (P33032 whole entry): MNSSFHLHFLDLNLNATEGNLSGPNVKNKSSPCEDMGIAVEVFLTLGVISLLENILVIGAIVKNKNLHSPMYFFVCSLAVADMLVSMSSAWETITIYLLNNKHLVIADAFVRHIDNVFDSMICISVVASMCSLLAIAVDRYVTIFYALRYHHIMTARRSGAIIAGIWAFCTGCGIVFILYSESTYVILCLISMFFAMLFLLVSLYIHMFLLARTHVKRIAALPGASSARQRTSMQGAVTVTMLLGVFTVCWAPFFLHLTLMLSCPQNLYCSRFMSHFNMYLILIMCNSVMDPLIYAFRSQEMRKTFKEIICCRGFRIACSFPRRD
Method in brief: as §1

[1] = molecular target: T6, Human melanin-concentrating hormone (MCH1) (Homo sapiens, UniProt Q99705); test: Radioligand binding, human melanin-concentrating hormone MCH1 membranes, FlashPlate, [125I]-S36057; conditions: compound at 10 μM; for A6: inhibition of radioligand binding: [125I]-S36057, FlashPlate
T6 construct: purchased Perkin Elmer Biosignal
T6 sequence (Q99705 whole entry): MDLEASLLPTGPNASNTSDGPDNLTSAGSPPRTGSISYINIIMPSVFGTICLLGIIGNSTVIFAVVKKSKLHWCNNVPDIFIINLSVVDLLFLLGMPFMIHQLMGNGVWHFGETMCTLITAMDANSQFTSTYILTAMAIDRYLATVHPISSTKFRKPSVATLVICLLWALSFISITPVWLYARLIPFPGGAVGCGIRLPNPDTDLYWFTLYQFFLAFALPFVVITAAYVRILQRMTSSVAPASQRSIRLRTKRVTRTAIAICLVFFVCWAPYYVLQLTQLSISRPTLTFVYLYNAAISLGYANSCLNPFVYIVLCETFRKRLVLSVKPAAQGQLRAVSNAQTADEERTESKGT
Method in brief: as §1

Human μ-opioid (MOP) = molecular target: T7, Human μ-opioid (MOP) (Homo sapiens, UniProt P35372); test: Radioligand binding, human μ-opioid (MOP) membranes, FlashPlate, [3H]-Naloxone; conditions: compound at 10 μM, [3H]-Naloxone; for A7: inhibition of radioligand binding: FlashPlate
T7 construct: purchased Perkin Elmer Biosignal
T7 sequence (P35372 whole entry): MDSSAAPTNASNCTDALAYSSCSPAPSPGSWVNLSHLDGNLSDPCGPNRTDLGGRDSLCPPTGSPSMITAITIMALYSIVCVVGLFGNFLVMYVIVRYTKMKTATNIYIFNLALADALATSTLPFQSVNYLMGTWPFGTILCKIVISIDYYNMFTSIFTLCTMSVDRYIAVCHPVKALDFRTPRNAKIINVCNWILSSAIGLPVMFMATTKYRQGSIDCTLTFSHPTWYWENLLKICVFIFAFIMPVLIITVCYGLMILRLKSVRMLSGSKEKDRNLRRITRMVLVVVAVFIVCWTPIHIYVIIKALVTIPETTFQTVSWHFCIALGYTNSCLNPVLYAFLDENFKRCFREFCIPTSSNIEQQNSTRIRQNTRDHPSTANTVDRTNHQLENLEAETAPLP
Method in brief: as §1

Human neurokinin (NK1) = molecular target: T8, Human neurokinin (NK1) (Homo sapiens, UniProt P25103); test: Radioligand binding, human neurokinin NK1 membranes, filtration, [125I]-Substance P; conditions: compound at 10 μM, [125I]-Substance P; for A8: inhibition of radioligand binding: filtration
T8 construct: purchased Perkin Elmer Biosignal
T8 sequence (P25103 whole entry): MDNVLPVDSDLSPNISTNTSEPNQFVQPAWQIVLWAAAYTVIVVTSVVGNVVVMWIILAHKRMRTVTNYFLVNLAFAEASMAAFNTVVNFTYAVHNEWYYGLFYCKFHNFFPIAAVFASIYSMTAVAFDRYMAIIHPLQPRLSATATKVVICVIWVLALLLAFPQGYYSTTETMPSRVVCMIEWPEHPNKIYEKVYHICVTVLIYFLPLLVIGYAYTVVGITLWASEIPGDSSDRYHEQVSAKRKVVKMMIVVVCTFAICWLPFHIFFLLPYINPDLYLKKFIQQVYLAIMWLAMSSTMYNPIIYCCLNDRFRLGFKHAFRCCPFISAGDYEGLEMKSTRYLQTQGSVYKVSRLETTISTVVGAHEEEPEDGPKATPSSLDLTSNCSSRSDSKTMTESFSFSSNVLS
Method in brief: as §2

[2] = molecular target: T9, Human neuropeptide Y (NPY-Y1) (Homo sapiens, UniProt P25929); test: Radioligand binding, human neuropeptide Y NPY-Y1 membranes, FlashPlate, [125I]-PYY; conditions: compound at 10 μM, [125I]-PYY; for A9: inhibition of radioligand binding: FlashPlate
T9 construct: purchased Perkin Elmer Biosignal
T9 sequence (P25929 1-384): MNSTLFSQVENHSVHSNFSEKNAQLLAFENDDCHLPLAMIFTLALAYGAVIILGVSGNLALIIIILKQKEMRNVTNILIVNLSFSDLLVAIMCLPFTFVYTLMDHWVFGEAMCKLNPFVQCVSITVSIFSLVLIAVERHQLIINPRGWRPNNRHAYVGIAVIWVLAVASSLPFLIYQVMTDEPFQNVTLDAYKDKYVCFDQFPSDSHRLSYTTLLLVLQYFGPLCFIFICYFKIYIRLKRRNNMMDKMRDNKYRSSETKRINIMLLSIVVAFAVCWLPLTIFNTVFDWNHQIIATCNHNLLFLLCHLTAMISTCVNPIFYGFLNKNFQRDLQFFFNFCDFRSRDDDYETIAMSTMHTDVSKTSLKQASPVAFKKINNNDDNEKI
Method in brief: as §1

Human opioid (ORL1) = molecular target: T10, Human opioid (ORL1) (Homo sapiens, UniProt P41146); test: Radioligand binding, human opioid ORL1 membranes, FlashPlate, [125I]-Nociceptin; conditions: compound at 10 μM, [125I]-Nociceptin; for A10: inhibition of radioligand binding: FlashPlate
T10 construct: purchased Perkin Elmer Biosignal
T10 sequence (P41146 whole entry): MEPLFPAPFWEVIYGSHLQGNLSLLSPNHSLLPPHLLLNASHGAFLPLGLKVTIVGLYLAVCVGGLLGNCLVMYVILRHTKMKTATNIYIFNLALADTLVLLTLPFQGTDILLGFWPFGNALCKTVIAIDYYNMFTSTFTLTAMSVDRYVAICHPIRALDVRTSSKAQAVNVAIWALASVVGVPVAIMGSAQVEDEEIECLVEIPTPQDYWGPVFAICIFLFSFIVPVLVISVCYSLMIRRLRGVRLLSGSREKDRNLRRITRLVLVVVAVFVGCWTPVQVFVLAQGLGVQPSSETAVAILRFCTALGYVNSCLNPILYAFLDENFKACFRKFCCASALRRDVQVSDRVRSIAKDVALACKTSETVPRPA
Method in brief: as §1

Mouse urotensin (mUR2) = molecular target: T11, Mouse urotensin (mUR2) (Mus musculus, UniProt Q8VIH9); test: Radioligand binding, mouse urotensin mUR2 membranes, FlashPlate, [125I]-Urotensin II; conditions: compound at 10 μM, [125I]-Urotensin II; for A11: inhibition of radioligand binding: FlashPlate
T11 construct: purchased Perkin Elmer Biosignal
T11 sequence (Q8VIH9 1-385): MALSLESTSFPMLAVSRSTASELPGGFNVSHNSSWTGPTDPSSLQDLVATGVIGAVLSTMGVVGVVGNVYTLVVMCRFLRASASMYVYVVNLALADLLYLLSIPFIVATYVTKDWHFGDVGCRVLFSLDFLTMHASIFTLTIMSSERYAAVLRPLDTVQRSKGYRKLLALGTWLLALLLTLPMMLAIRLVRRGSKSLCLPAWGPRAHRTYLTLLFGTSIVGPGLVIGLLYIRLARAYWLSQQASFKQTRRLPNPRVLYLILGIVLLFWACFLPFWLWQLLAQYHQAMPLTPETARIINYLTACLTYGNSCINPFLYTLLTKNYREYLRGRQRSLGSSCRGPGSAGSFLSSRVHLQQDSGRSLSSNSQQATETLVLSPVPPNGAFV
Method in brief: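 Cloned mouse urotensin (mUR2) receptor membranes from Perkin Elmer Biosignal were immobilized in FlashPlate microplates using a proprietary coating. Each well got 19.5 μl buffer, then 0.5 μl of DMSO, reference ligand, or compound. Adding 5 μl of [125I]-Urotensin II, diluted to 5× final concentration in binding buffer, started binding. Plates were sealed with TopSeal-A and incubated 1 hour at room temperature in the dark. Wells were counted for 30 seconds each on a TopCount after a 60-second delay, and percentage inhibition was calculated.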

T1 sequence (P41143 whole entry): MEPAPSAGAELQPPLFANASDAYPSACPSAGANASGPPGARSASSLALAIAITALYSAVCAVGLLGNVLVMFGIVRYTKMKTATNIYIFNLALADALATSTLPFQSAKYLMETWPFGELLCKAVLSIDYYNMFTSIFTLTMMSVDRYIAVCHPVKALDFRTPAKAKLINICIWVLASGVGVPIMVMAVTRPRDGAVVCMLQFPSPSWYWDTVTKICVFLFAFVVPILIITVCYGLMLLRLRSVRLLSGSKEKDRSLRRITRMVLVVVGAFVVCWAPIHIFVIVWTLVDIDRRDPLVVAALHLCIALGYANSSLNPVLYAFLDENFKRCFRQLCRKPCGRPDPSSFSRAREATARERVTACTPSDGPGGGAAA

Row | SMILES | A1: inhibition of radioligand binding (Human δ-opioid (DOP)) | A2: inhibition of radioligand binding (Human κ-Opioid (KOP)) | A3: inhibition of radioligand binding (Human Melanocortin (MC3)) | A4: inhibition of radioligand binding (Human Melanocortin (MC4)) | A5: inhibition of radioligand binding (Human melanocortin (MC5)) | A6: inhibition of radioligand binding [1] | A7: inhibition of radioligand binding (Human μ-opioid (MOP)) | A8: inhibition of radioligand binding (Human neurokinin (NK1)) | A9: inhibition of radioligand binding [2] | A10: inhibition of radioligand binding (Human opioid (ORL1)) | A11: inhibition of radioligand binding (Mouse urotensin (mUR2)) | further results
1 | COCC1OC(OCc2ccc3ccccc3c2)C(NC(=O)CCN)C(OCc2ccc(Cl)cc2)C1O (stereo not drawn) [compound 237] | − (“−” indicates less than 50% inhibition at 10 μM) | − (“−” indicates less than 50% inhibition at 10 μM) | − (“−” indicates less than 50% inhibition at 10 μM) | − (“−” indicates less than 50% inhibition at 10 μM) | + (“+” indicates greater than 50% inhibition at 10 μM) | − (“−” indicates less than 50% inhibition at 10 μM) | − (“−” indicates less than 50% inhibition at 10 μM) | + (“+” indicates greater than 50% inhibition at 10 μM) | − (“−” indicates less than 50% inhibition at 10 μM) | − (“−” indicates less than 50% inhibition at 10 μM) | − (“−” indicates less than 50% inhibition at 10 μM) | 
2 | CSC1O[C@H](COCc2ccc(-c3ccccc3)cc2)[C@@H](O)[C@@H](OCc2ccc(Cl)cc2)[C@H]1NC(=O)CNC(=N)N (stereo partly drawn) [compound 275] | − (“−” indicates less than 50% inhibition at 10 μM) | − (“−” indicates less than 50% inhibition at 10 μM) | − (“−” indicates less than 50% inhibition at 10 μM) | + (“+” indicates greater than 50% inhibition at 10 μM) | + (“+” indicates greater than 50% inhibition at 10 μM) | − (“−” indicates less than 50% inhibition at 10 μM) | − (“−” indicates less than 50% inhibition at 10 μM) | + (“+” indicates greater than 50% inhibition at 10 μM) | − (“−” indicates less than 50% inhibition at 10 μM) | − (“−” indicates less than 50% inhibition at 10 μM) | − (“−” indicates less than 50% inhibition at 10 μM) | 
3 | N=C(N)NCCC(=O)N[C@H]1C(OCc2ccc(Cl)cc2)O[C@H](COCc2ccc(Cl)cc2)[C@@H](O)[C@@H]1OCc1ccc(-c2ccccc2)cc1 (stereo partly drawn) [compound 537] |  |  |  |  |  |  |  |  |  |  |  | A1: inhibition of radioligand binding, human δ-opioid (DOP) (Human δ-opioid (DOP)): − (“−” indicates less than 50% inhibition at 10 μM); A2: inhibition of radioligand binding, human κ-opioid (KOP) (Human κ-Opioid (KOP); 10 µM): − (“−” indicates less than 50% inhibition at 10 μM); A3: inhibition of radioligand binding, human melanocortin (MC3) (Human Melanocortin (MC3)): + (“+” indicates greater than 50% inhibition at 10 μM); A4: inhibition of radioligand binding, human melanocortin (MC4) (Human Melanocortin (MC4)): + (“+” indicates greater than 50% inhibition at 10 μM); A5: inhibition of radioligand binding, human melanocortin (MC5) (Human melanocortin (MC5)): + (“+” indicates greater than 50% inhibition at 10 μM); A6: inhibition of radioligand binding, human melanin-concentrating hormone (MCH1) ([1]; [125I]-S36057): + (“+” indicates greater than 50% inhibition at 10 μM); A7: inhibition of radioligand binding, human μ-opioid (MOP) (Human μ-opioid (MOP)): − (“−” indicates less than 50% inhibition at 10 μM); A8: inhibition of radioligand binding, human neurokinin (NK1) (Human neurokinin (NK1)): + (“+” indicates greater than 50% inhibition at 10 μM); A9: inhibition of radioligand binding, human neuropeptide Y (NPY-Y1) ([2]; 10 µM): − (“−” indicates less than 50% inhibition at 10 μM); A10: inhibition of radioligand binding, human opioid (ORL1) (Human opioid (ORL1)): + (“+” indicates greater than 50% inhibition at 10 μM); A11: inhibition of radioligand binding, mouse urotensin (mUR2) (Mouse urotensin (mUR2); 10 µM): − (“−” indicates less than 50% inhibition at 10 μM)
